Test results: patent US9981969B2, “Imidazole derivatives and methods of use thereof for improving the pharmacokinetics of a drug” (MERCK SHARP & DOHME CORP., priority 2013, dated 2018)

How the values were obtained:
human CYP11B2 = target: T1, human CYP11B2 (Homo sapiens, UniProt P19099); test: IC50 vs CYP11B2 by measurement of aldosterone synthesis in V79 cells; assay type: cell-based; details: V79 cells expressing human CYP11B2, 750 nM DOC, aldosterone HTRF
T1 construct: expressed in transfected cells
T1 sequence (P19099 25-503): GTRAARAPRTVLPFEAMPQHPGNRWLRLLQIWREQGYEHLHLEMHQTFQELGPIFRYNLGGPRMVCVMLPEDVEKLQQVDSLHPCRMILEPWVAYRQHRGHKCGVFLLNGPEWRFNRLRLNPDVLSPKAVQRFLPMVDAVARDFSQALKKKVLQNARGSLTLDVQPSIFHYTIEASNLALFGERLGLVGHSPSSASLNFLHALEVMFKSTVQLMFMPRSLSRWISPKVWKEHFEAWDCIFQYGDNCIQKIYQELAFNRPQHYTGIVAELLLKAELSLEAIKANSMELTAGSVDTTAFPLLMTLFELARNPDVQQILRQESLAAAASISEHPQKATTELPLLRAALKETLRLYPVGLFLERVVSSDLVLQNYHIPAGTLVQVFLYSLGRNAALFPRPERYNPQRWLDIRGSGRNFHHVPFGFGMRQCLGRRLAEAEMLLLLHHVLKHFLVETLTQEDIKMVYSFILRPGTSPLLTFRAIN
In short: (§1)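 V79 cells stably expressing CYP11B1 or CYP11B2 were treated with test compound at 10 concentrations (e.g. 10000 down to 0.5 nM), with 1500 nM RSS (CYP11B1) or 750 nM DOC (CYP11B2) as substrate. After ~15 h at RT in the dark, supernatant cortisol/aldosterone was measured by HTRF and back-calculated from a standard curve. IC50 was taken as the inflection point of a four-parameter fit.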

CYP2C9 = target: T2, CYP2C9 (Homo sapiens, UniProt P11712); test: Cocktail assay for CYPs in human liver microsomes, diclofenac 4′-hydroxylation (2C9); assay type: biochemical; details: 5 μM diclofenac, 10 min at 37° C.
T2 construct: 0.1 mg/mL protein human liver microsomes (BD Gentest); tissue BD Gentest; host or cells: human liver microsomes
T2 sequence (P11712 whole entry): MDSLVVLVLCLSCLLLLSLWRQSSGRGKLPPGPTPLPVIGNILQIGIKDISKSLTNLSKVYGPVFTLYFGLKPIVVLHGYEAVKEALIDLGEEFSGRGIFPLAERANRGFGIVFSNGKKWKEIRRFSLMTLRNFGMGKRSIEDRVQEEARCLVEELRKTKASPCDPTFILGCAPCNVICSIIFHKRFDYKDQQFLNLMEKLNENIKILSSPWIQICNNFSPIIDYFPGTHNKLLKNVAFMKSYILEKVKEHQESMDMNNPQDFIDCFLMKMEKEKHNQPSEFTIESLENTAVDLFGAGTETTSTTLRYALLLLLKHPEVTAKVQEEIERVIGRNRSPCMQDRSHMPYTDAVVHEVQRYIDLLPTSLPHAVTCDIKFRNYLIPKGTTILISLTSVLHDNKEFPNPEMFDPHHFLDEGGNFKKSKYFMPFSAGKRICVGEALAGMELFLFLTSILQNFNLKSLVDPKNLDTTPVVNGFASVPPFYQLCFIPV
In short: (§2)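 Pooled human liver microsomes (0.1 mg/mL) with substrate cocktail (10 μM phenacetin, 5 μM diclofenac, 30 μM mephenytoin, 5 μM dextromethorphan), 1 mM NADPH, pH 7.4 phosphate, 10 min at 37 °C. Metabolites by LC/MS/MS; IC50 from % inhibition at 6 concentrations up to 10 μM.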

human CYP11B1 = target: T3, human CYP11B1 (Homo sapiens, UniProt P15538); test: IC50 vs CYP11B1 by measurement of cortisol synthesis in V79 cells; assay type: cell-based; details: V79 cells expressing human CYP11B1, 1500 nM RSS, cortisol HTRF
T3 construct: expressed in transfected cells
T3 sequence (P15538 25-503): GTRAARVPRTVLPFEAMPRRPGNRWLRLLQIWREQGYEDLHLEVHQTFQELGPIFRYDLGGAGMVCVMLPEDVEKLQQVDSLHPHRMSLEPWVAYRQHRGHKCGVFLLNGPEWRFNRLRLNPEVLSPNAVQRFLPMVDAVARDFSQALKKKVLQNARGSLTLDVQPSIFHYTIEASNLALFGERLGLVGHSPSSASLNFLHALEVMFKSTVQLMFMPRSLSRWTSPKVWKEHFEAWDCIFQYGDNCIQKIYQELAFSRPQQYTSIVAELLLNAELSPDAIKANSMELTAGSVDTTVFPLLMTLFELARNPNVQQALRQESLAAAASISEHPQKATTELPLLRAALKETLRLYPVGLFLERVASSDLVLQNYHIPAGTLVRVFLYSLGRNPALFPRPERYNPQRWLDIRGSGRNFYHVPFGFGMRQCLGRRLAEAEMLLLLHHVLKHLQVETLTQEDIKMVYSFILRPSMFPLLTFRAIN
In short: as §1

CYP1A2 = target: T4, CYP1A2 (Homo sapiens, UniProt P05177); test: Cocktail assay for CYPs in human liver microsomes, phenacetin O-deethylation (1A2); assay type: biochemical; details: 10 μM phenacetin, 10 min at 37° C.
T4 construct: 0.1 mg/mL protein human liver microsomes (BD Gentest); tissue BD Gentest; host or cells: human liver microsomes
T4 sequence (P05177 1-516): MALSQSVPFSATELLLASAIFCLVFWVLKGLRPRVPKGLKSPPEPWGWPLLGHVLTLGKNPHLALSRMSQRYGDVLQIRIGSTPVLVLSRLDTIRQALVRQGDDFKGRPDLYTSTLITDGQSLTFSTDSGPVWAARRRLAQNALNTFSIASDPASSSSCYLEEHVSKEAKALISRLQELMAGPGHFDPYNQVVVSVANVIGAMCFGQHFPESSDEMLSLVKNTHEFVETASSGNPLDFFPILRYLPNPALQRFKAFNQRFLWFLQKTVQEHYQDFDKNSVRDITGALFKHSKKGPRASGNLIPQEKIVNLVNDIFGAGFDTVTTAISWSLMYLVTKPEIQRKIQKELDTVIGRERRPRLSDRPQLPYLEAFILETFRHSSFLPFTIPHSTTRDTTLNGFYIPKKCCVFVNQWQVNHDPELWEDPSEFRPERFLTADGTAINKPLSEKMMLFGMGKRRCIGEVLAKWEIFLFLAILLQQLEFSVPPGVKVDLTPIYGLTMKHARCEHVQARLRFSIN
In short: as §2

CYP3A4 = target: T5, CYP3A4 (Homo sapiens, UniProt P08684); test: Cocktail assay for CYPs in human liver microsomes, midazolam 1′-hydroxylation (3A4); assay type: biochemical; details: 2 μM midazolam, 10 min at 37° C.
T5 construct: 0.1 mg/mL protein human liver microsomes (BD Gentest); tissue BD Gentest; host or cells: human liver microsomes
T5 sequence (P08684 whole entry): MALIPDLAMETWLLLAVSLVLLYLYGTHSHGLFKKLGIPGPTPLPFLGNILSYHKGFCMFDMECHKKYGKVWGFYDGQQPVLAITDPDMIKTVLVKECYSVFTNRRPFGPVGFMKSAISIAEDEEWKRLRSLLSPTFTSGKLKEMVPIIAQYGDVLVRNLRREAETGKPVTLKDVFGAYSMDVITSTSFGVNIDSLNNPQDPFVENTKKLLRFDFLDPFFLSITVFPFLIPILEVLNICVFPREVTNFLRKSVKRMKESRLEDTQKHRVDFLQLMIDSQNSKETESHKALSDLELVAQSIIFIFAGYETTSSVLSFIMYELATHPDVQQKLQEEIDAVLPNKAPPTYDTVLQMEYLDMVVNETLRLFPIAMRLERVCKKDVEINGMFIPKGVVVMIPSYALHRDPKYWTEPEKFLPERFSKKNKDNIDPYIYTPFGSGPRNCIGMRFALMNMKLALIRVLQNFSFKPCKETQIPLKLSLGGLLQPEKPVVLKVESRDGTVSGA
In short: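 CYP3A4 inhibition was measured in human liver microsomes (0.1 mg/mL protein) with 2 μM midazolam as the probe substrate, 1 mM NAPDH, 3.3 mM MgCl2 and 100 mM potassium phosphate buffer (pH 7.4), incubated 10 min at 37° C. After acetonitrile treatment, metabolite was quantified by LC/MS/MS against a tolbutamide internal standard. Percent inhibition at 6 concentrations gave IC50 by SigmaPlot non-linear regression.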

CYP2C19 = target: T6, CYP2C19 (Homo sapiens, UniProt P33261); test: Cocktail assay for CYPs in human liver microsomes, mephenytoin 4′-hydroxylation (2C19); assay type: biochemical; details: 30 μM mephenytoin, 10 min at 37° C.
T6 construct: 0.1 mg/mL protein human liver microsomes (BD Gentest); tissue BD Gentest; host or cells: human liver microsomes
T6 sequence (P33261 whole entry): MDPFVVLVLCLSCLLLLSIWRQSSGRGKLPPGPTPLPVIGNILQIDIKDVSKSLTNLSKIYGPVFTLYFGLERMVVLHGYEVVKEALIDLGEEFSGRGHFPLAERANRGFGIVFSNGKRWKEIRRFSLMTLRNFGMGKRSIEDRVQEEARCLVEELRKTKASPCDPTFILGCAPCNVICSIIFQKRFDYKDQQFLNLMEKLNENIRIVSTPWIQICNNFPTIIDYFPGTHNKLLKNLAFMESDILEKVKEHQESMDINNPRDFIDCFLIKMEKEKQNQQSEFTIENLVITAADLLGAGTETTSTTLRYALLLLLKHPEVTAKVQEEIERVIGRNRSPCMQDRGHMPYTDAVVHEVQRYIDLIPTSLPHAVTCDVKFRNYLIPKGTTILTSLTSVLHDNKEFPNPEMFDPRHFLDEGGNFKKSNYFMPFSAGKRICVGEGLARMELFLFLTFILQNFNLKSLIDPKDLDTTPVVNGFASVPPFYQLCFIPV
In short: as §2

CYP2D6 = target: T7, CYP2D6 (Homo sapiens, UniProt P10635); test: Cocktail assay for CYPs in human liver microsomes, dextromethorphan O-demethylation (2D6); assay type: biochemical; details: 5 μM dextromethorphan, 10 min at 37° C.
T7 construct: 0.1 mg/mL protein human liver microsomes (BD Gentest); tissue BD Gentest; host or cells: human liver microsomes
T7 sequence (P10635 whole entry): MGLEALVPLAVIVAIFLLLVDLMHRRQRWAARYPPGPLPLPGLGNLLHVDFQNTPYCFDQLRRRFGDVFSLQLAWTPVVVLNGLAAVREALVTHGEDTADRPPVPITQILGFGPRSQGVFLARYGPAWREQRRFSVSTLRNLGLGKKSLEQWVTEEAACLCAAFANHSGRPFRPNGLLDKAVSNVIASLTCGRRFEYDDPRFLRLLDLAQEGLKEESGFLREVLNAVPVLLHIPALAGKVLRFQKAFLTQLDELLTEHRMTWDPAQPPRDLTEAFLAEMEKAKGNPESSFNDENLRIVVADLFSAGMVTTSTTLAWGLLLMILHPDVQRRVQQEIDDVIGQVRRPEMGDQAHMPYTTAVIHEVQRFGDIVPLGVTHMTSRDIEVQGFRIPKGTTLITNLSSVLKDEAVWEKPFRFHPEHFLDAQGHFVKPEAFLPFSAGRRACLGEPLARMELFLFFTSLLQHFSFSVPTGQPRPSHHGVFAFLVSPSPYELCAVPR
In short: as §2

| SMILES | IC50 (human CYP11B2) [µM] | IC50 (CYP2C9) [µM] | IC50 (human CYP11B1) [µM] | IC50 (CYP1A2) [µM] | IC50 (CYP3A4) [µM] | IC50 (CYP2C19) [µM] | IC50 (CYP2D6) [µM] |
| --- | --- | --- | --- | --- | --- | --- | --- |
| C[C@@H](c1ccccc1-c1cc(F)cc(F)c1)n1cncc1C(=O)N1CCC2NCCO[C@@H]2C1 (stereo partly shown) [Compound 37] | > 50 | > 10 | 19.7 | > 10 | 0.0097 | > 10 | > 10 |
| C[C@@H](c1ccccc1-c1ccc(F)cc1)n1cncc1C(=O)N1CCN2C[C@H](O)C[C@H]2C1 [Compound 6, (1-((S)-1-(4′-fluoro-[1,1′-biphenyl]-2-yl)ethyl)-1H-imidazol-5-yl)((7R,8aS)-7-hydroxyhexahydro-pyrrolo[1,2-a]pyrazin-2(1H)-yl)methanone] | > 50 | > 10 | 29.7 | > 10 | 0.0089 | > 10 | > 10 |
| CO[C@H]1CN(C2CCN(C(=O)c3cncn3[C@@H](C)c3ccccc3-c3ccc(F)cc3)CC2)CC[C@@H]1O [Compound 10] | > 50 | > 10 | > 50 | > 10 | 0.005 | > 10 | 5.91 |
| C[C@@H](c1ccccc1-c1ccc(F)cc1)n1cncc1C(=O)N1CCC(N2CC[C@H](O)[C@@H](F)C2)CC1 [Compound 13] | > 50 | > 10 | 22.8 | > 10 | 0.0053 | > 10 | > 10 |
| C[C@@H](c1ccccc1-c1ccc(F)cc1)n1cncc1C(=O)N1CCC(N2CCC(F)C(O)C2)CC1 (stereo partly shown) [Compound 19] | > 50 | > 10 | 32.5 | > 10 | 0.0057 | > 10 | > 10 |

Other lines, results leading:

| IC50 (human CYP11B2) [µM] | IC50 (CYP2C9) [µM] | IC50 (human CYP11B1) [µM] | IC50 (CYP1A2) [µM] | IC50 (CYP3A4) [µM] | IC50 (CYP2C19) [µM] | IC50 (CYP2D6) [µM] | SMILES |
| --- | --- | --- | --- | --- | --- | --- | --- |
| > 50 | > 10 | 13.9 | > 10 | 0.0058 | > 10 | 4.87 | C[C@@H](c1ccccc1-c1ccc(F)cc1)n1cncc1C(=O)N1CC[C@H]2NCCO[C@@H]2C1 [Compound 4] |
| > 50 | > 10 | 22.5 | > 10 | 0.0042 | > 10 | 8.38 | C[C@H]1CN(C(=O)c2cncn2[C@@H](C)c2ccccc2-c2ccc(F)cc2)CC[C@H]1N1CC[C@@H](O)C1 [Compound 32] |
| > 50 | > 10 | 26.7 | > 10 | 0.006 | > 10 | 7.06 | CO[C@H]1CN(C2CCN(C(=O)c3cncn3[C@@H](C)c3ccccc3-c3ccc(F)cc3)CC2)CC[C@H]1O [Compound 11] |
| > 50 | > 10 | 41.9 | > 10 | 0.0062 | > 10 | 5.08 | CO[C@@H]1CN(C2CCN(C(=O)c3cncn3[C@@H](C)c3ccccc3-c3ccc(F)cc3)CC2)CC[C@@H]1O [Compound 12] |
| 23.9 | > 10 | 11.1 | > 10 | 0.0058 | > 10 | > 10 | C[C@@H](c1ccccc1-c1ccc(F)cc1)n1cncc1C(=O)N1CCC(N2CCn3ncnc3C2)CC1 [Compound 27] |
